{
  "source": "paper PMC5891061",
  "about": "“Electrophysiological mechanisms of vandetanib-induced cardiotoxicity: Comparison of action potentials in rabbit Purkinje fibers and pluripotent stem cell-derived cardiomyocytes” (PLoS ONE, 2018)",
  "key": {"[1]": {"target": "hERG (IKr) (Homo sapiens, UniProt Q12809)", "sequence (Q12809 whole entry)": "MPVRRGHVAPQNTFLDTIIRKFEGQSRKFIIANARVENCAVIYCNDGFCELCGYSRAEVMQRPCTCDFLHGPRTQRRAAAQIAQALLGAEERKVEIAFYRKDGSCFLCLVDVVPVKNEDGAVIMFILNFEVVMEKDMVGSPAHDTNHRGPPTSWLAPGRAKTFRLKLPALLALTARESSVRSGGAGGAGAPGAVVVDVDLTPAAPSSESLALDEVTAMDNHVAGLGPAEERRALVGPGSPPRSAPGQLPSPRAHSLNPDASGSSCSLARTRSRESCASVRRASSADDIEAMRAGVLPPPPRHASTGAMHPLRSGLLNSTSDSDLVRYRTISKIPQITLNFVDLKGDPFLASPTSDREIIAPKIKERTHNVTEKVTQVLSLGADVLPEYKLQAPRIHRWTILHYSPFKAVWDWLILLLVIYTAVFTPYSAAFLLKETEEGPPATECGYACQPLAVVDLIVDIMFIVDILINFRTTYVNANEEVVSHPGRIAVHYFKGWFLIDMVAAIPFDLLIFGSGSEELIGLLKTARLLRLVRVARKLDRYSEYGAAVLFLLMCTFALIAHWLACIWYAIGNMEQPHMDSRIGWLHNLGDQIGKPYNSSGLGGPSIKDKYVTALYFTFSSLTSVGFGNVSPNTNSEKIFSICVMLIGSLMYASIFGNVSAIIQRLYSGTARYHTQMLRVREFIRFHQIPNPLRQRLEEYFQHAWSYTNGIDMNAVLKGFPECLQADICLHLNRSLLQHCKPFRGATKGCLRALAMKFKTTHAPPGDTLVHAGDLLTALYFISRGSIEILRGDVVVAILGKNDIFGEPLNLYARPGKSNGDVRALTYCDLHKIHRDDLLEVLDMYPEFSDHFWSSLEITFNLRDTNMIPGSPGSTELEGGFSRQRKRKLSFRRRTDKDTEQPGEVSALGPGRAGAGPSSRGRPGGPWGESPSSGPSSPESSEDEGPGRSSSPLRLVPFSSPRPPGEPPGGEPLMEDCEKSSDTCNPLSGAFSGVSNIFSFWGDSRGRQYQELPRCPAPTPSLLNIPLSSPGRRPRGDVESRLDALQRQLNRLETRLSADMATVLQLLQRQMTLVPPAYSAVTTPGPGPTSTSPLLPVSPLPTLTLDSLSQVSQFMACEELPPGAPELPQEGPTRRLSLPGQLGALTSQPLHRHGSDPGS", "assay": "Whole-cell patch clamp, IhERG tail current in transfected HEK293 cells", "description": "(§1) For various aspects of cardiac ion channel study, human embryonic kidney (HEK293; ATCC, Manassas, VA, USA) cells were transiently transfected using lipofectAmin2000 (Gibco BRL, New York, NY, USA) according to the manufacturer’s instructions. The hERG (human ether-ago-go-related gene corresponding to IKr), KCNQ1/KCNE1 (the gene corresponding to IKs), KCNJ2 (the gene corresponding to IK1) or SCN5A (the gene corresponding to INa) cDNA was co-transfected with green fluorescence protein, the surface marker protein, to allow assessment of the transfection efficiency. For the calcium current, enzymatically isolated single rat ventricular myocytes were used. Briefly, the hearts were rapidly excised from anaesthetized Sprague–Dawley rats (250–350 g) and perfused via the aorta on a Langendorff apparatus with an oxygenated normal Tyrode (NT) solution for 5 min. To clear the blood, then perfused with Ca^2+-free normal Tyrode solution for 3 min. […]\n(§2) The external solution for recording the IhERG, IKs and INa channel currents was NT solution. […] The calcium current was measured in naïve rat ventricular myocytes, cells were superfused with an external solution that consisted of (in mM): 137 choline-Cl, 5 CsCl, 0.5 MgCl2, 2 4-AP, 10 HEPES, 10 glucose and 1.8 CaCl2 (pH 7.4 with NaOH), whereas the intracellular solution used to fill the pipette had the following ionic solution (in mM): 20 CsCl, 100 Cs-aspartate, 10 EGTA, 10 HEPES, 20 TEA-Cl, 5 Mg-ATP (pH 7.25 with KOH). […]\npCLAMP (Axon Instruments, Foster City, CA, USA), Origin 8 (OriginLab Corp, Northampton, MA, USA), and Excel (Microsoft, Redmond, WA, USA) were used for data acquisition and analysis. The concentration–response relationships for drug-induced blockage were calculated using SigmaPlot (Systat Software, San Jose, CA, USA). […] Statistical significance was determined using the Student’s t-test and one-way ANOVA with post hoc testing using Dunnett’s method; p < 0.05 was considered to indicate statistical significance. […]"}, "[2]": {"target": "T1, KCNJ2 (IK1) (Homo sapiens, UniProt P63252)", "T1 sequence (P63252 1-427)": "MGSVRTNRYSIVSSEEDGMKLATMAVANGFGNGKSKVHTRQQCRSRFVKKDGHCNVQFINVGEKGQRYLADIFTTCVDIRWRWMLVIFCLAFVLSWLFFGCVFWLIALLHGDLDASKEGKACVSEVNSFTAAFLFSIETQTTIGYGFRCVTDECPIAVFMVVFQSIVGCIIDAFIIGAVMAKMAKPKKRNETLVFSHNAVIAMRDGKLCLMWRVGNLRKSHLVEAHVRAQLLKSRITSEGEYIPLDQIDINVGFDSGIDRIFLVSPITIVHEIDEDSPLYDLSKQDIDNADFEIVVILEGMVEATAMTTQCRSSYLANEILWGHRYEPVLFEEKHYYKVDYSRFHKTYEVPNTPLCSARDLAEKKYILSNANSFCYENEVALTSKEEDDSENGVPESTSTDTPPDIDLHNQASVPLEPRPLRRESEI", "assay": "cell-based", "description": "as §1, with “min.” for “min. To clear the blood, then perfused with Ca^2+-free normal Tyrode solution for 3 min.”\nas §2"}, "[3]": {"target": "WT hERG (Homo sapiens, UniProt Q12809)", "sequence (Q12809 whole entry)": "as the sequence (Q12809 whole entry) above", "assay": "Alanine scanning: wild-type hERG current in HEK-293 cells", "description": "The hERG mutations were constructed by site-directed mutagenesis of WT hERG cDNA in pcDNA3.1 vector using the QuickChange Site-Directed Mutagenesis Kit (Stratagene), and the integrity of the construct was verified by DNA sequencing. The WT hERG (generously donated by Professor Ho, Seoul National University, Korea) and mutant channels were transiently expressed in an HEK-293 cell line using Lipofectamine 2000 (Gibco), according to the manufacturer’s recommendations."}, "[4]": {"target": "Y652A hERG (Homo sapiens, UniProt Q12809, Y652A)", "sequence (Q12809 whole entry Y652A)": "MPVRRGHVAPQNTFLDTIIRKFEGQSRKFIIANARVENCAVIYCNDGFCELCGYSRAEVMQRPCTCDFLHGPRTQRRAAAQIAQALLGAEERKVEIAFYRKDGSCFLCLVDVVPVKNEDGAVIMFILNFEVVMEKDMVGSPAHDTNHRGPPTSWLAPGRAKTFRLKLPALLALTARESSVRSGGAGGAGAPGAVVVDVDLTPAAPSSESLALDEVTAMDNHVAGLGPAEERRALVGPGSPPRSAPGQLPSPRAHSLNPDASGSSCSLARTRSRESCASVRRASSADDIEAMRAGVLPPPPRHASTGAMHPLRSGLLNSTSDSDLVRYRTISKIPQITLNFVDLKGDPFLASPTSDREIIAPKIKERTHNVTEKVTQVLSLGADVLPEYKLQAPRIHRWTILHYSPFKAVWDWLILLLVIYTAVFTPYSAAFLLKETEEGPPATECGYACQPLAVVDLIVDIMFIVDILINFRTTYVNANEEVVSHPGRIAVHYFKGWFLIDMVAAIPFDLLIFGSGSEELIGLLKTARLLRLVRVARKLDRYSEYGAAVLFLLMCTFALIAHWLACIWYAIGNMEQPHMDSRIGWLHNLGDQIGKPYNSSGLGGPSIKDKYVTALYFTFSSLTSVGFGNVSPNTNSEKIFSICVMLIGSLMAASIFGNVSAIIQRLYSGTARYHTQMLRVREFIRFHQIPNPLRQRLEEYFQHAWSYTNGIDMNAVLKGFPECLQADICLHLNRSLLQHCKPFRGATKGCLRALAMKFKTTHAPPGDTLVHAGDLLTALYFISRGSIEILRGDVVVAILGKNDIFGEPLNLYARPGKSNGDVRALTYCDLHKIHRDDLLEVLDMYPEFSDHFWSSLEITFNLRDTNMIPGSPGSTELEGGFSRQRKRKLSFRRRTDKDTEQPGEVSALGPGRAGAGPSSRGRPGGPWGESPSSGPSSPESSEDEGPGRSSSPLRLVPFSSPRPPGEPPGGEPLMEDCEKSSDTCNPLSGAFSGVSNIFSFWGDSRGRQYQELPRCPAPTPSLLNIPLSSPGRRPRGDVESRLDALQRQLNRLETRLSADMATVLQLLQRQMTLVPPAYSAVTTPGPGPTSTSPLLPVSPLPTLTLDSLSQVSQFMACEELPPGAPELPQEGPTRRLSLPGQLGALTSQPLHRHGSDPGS", "assay": "in vitro", "details": "HEK-293 cells transiently expressing Y652A mutant hERG"}},
  "data": [
    {"smiles": "COc1cc2c(Nc3ccc(Br)cc3F)ncnc2cc1OCC1CCN(C)CC1", "note": "[Vandetanib]", "values": [
      {"measurement": "Reduction of IhERG current amplitude", "setting": "[1]; 0.3 μM", "result": 17.04, "unit": "%"},
      {"measurement": "Reduction of IhERG current amplitude", "setting": "[1]; 1 μM", "result": 45.32, "unit": "%"},
      {"measurement": "Reduction of IhERG current amplitude", "setting": "[1]; 3 μM", "result": 76.05, "unit": "%"},
      {"measurement": "IC50", "setting": "[2]", "result": "94.5 ± 4.57", "unit": "µM"},
      {"measurement": "WT hERG current", "setting": "[3]; 3 μM", "result": "208.9 ± 21.6"},
      {"measurement": "inhibition at 3 μM", "setting": "[3]; human, HEK-293 cells transiently expressing wild-type hERG", "result": "~86.4", "unit": "%"},
      {"measurement": "inhibition at 3 μM", "setting": "[4]", "result": "64.2 ± 2.8", "unit": "%"}
    ]}
  ]
}
